# Assay results taken from US20250262201A1, “COMPOUNDS AND METHODS USEFUL FOR STABILIZING PHENYLALANINE HYDROXYLASE MUTATIONS” (Agios Pharmaceuticals, Inc., priority 2022, published 2025).
# Target: T1, human PAH with the R408W mutation (Homo sapiens, UniProt P00439, R408W)
# T1 construct: expressed in transfected cells
# T1 sequence (P00439 1-452 R408W): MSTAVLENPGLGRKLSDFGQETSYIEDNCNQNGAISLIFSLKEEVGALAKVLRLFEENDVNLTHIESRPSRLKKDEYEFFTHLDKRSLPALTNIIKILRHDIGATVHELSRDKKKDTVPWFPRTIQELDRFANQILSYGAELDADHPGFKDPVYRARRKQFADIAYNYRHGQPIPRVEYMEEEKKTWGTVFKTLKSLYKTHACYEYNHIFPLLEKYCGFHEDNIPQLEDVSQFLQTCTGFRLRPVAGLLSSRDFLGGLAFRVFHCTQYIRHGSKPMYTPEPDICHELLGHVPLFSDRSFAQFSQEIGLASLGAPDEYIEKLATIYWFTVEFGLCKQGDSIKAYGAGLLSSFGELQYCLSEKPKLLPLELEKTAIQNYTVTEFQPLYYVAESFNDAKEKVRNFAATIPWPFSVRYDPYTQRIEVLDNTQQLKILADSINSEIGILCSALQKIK
# Test: Cell Based Phenylalanine Flux Assay
# Details: A375 cells expressing human R408W PAH; 24 hrs compound incubation; 13C-Tyrosine by LC-MS; average where tested multiple times; read-out: AC50
# Procedure: Compounds were resuspended in DMSO, and 2-fold serial dilutions were performed to generate a 10-point dose curve. Compounds were added to plated cells in a total volume of 100 pal, and a final DMSO concentration of 0.5%. Each compound was tested in duplicate. Following compound addition, cells were placed in a 5% CO2, 37° C. tissue culture incubator for 24 hrs. After the incubation period, 20 μM sepiapterin and 800 μM 13C9,15N-Phenylalanine were added. After 4 hours, cell media was removed. An aliquot of 10 μl of cell media was combined with 200 μl of extraction buffer (80% acetonitrile/20% H2O) for each well. Determination of ^13C-Tyrosine concentration was assessed by liquid chromatography mass spectrometry.
row,Compound,AC50
1,"C[C@H]1CN(C(=O)c2oc(-c3ccccn3)nc2C2CC2)[C@@H](c2cc3ccccc3cn2)c2nc[nH]c21 [Example 408, (4-cyclopropyl-2-(pyridin-2-yl)oxazol-5-yl)((4S,7S)-4-(isoquinolin-3-yl)-7-methyl-6,7-dihydro-1H-imidazo[4,5-c]pyridin-5(4H)-yl)methanone]",500 to 1000 nM
2,"C[C@@H]1CN(C(=O)c2oc(-c3ccccn3)nc2C2CC2)[C@H](c2cc3ccccc3cn2)c2nc[nH]c21 [Example 410, (4-cyclopropyl-2-(pyridin-2-yl)oxazol-5-yl)((4R,7R)-4-(isoquinolin-3-yl)-7-methyl-6,7-dihydro-1H-imidazo[4,5-c]pyridin-5(4H)-yl)methanone]",< 500 nM
3,"CC(C)(F)c1nnc(C(=O)N2CCc3[nH]cnc3[C@H]2c2cc3ccccc3cn2)o1 [Example 419, (R)-(5-(2-fluoropropan-2-yl)-1,3,4-oxadiazol-2-yl)(4-(isoquinolin-3-yl)-6,7-dihydro-1H-imidazo[4,5-c]pyridin-5(4H)-yl)methanone]",< 500 nM
4,"O=C(C1CN(CC(F)(F)F)C1)N1CCc2[nH]cnc2[C@H]1c1cc2ccccc2cn1 [Example 420, (R)-(4-(isoquinolin-3-yl)-6,7-dihydro-1H-imidazo[4,5-c]pyridin-5(4H)-yl)(1-(2,2,2-trifluoroethyl)azetidin-3-yl)methanone]",1000 to 5000 nM
5,"CC(C)(O)c1nc(C(=O)N2CCc3[nH]cnc3[C@H]2c2cc3ccccc3cn2)no1 [Example 421, (R)-(5-(2-hydroxypropan-2-yl)-1,2,4-oxadiazol-3-yl)(4-(isoquinolin-3-yl)-6,7-dihydro-1H-imidazo[4,5-c]pyridin-5(4H)-yl)methanone]",500 to 1000 nM
6,"CC(C)(O)c1noc(C(=O)N2CCc3[nH]cnc3[C@H]2c2cc3ccccc3cn2)n1 [Example 422, (R)-(3-(2-hydroxypropan-2-yl)-1,2,4-oxadiazol-5-yl)(4-(isoquinolin-3-yl)-6,7-dihydro-1H-imidazo[4,5-c]pyridin-5(4H)-yl)methanone]",1000 to 5000 nM
7,"Cn1nc(C(F)F)nc1C(=O)N1CCc2[nH]cnc2[C@H]1c1cc2ccccc2cn1 [Example 423, (R)-(3-(difluoromethyl)-1-methyl-1H-1,2,4-triazol-5-yl)(4-(isoquinolin-3-yl)-6,7-dihydro-1H-imidazo[4,5-c]pyridin-5(4H)-yl)methanone]",< 500 nM
8,"O=C(c1nnc(N2CC(F)C2)o1)N1CCc2[nH]cnc2[C@H]1c1cc2ccccc2cn1 [Example 424, (R)-(5-(3-fluoroazetidin-1-yl)-1,3,4-oxadiazol-2-yl)(4-(isoquinolin-3-yl)-6,7-dihydro-1H-imidazo[4,5-c]pyridin-5(4H)-yl)methanone]",< 500 nM
9,"O=C(c1nnc(N2CCC(F)CC2)o1)N1CCc2[nH]cnc2[C@H]1c1cc2ccccc2cn1 [Example 425, (R)-(5-(4-fluoropiperidin-1-yl)-1,3,4-oxadiazol-2-yl)(4-(isoquinolin-3-yl)-6,7-dihydro-1H-imidazo[4,5-c]pyridin-5(4H)-yl)methanone]",< 500 nM
10,"O=C(c1nnc(-c2ccn(C(F)F)n2)o1)N1CCc2[nH]cnc2[C@H]1c1cc2ccccc2cn1 [Example 426, (R)-(5-(1-(difluoromethyl)-1H-pyrazol-3-yl)-1,3,4-oxadiazol-2-yl)(4-(isoquinolin-3-yl)-6,7-dihydro-1H-imidazo[4,5-c]pyridin-5(4H)-yl)methanone]",< 500 nM
11,"C[C@H]1CN(C(=O)c2nnc(C(C)(C)C)o2)[C@@H](c2cc3ccccc3cn2)c2nc[nH]c21 [Example 427, (5-(tert-butyl)-1,3,4-oxadiazol-2-yl)((4S,7S)-4-(isoquinolin-3-yl)-7-methyl-6,7-dihydro-1H-imidazo[4,5-c]pyridin-5(4H)-yl)methanone]",1000 to 5000 nM
12,"C[C@H]1CN(C(=O)c2nnc(C(C)(C)C)o2)[C@H](c2cc3ccccc3cn2)c2nc[nH]c21 [Example 428, (5-(tert-butyl)-1,3,4-oxadiazol-2-yl)((4R,7S)-4-(isoquinolin-3-yl)-7-methyl-6,7-dihydro-1H-imidazo[4,5-c]pyridin-5(4H)-yl)methanone]",500 to 1000 nM
13,"C[C@@H]1CN(C(=O)c2nnc(C(C)(C)C)o2)[C@@H](c2cc3ccccc3cn2)c2nc[nH]c21 [Example 429, (5-(tert-butyl)-1,3,4-oxadiazol-2-yl)((4S,7R)-4-(isoquinolin-3-yl)-7-methyl-6,7-dihydro-1H-imidazo[4,5-c]pyridin-5(4H)-yl)methanone]",1000 to 5000 nM
14,"C[C@@H]1CN(C(=O)c2nnc(C(C)(C)C)o2)[C@H](c2cc3ccccc3cn2)c2nc[nH]c21 [Example 430, (5-(tert-butyl)-1,3,4-oxadiazol-2-yl)((4R,7R)-4-(isoquinolin-3-yl)-7-methyl-6,7-dihydro-1H-imidazo[4,5-c]pyridin-5(4H)-yl)methanone]",< 500 nM
15,"O=C(c1cnn2ccccc12)N1CCc2[nH]cnc2[C@H]1c1cc2ccccc2cn1 [Example 431, (R)-(4-(isoquinolin-3-yl)-6,7-dihydro-1H-imidazo[4,5-c]pyridin-5(4H)-yl)(pyrazolo[1,5-a]pyridin-3-yl)methanone]",< 500 nM
16,"O=C(c1nnc(N2CCOCC2)o1)N1CCc2[nH]cnc2[C@H]1c1cc2ccccc2cn1 [Example 433, (R)-(4-(isoquinolin-3-yl)-6,7-dihydro-1H-imidazo[4,5-c]pyridin-5(4H)-yl)(5-morpholino-1,3,4-oxadiazol-2-yl)methanone]",500 to 1000 nM
17,"CC(C)(C)c1ncc(C(=O)N2CCc3[nH]cnc3[C@H]2c2cc3ccccc3cn2)o1 [Example 435, (R)-(2-(tert-butyl)oxazol-5-yl)(4-(isoquinolin-3-yl)-6,7-dihydro-1H-imidazo[4,5-c]pyridin-5(4H)-yl)methanone]",< 500 nM
18,"O=C(c1nnc(-c2ncccc2F)o1)N1CCc2[nH]cnc2[C@H]1c1cc2ccccc2cn1 [Example 437, (R)-(5-(3-fluoropyridin-2-yl)-1,3,4-oxadiazol-2-yl)(4-(isoquinolin-3-yl)-6,7-dihydro-1H-imidazo[4,5-c]pyridin-5(4H)-yl)methanone]",< 500 nM
19,"COc1ccc(-c2nnc(C(=O)N3CCc4[nH]cnc4[C@H]3c3cc4ccccc4cn3)o2)nc1 [Example 438, (R)-(4-(isoquinolin-3-yl)-6,7-dihydro-1H-imidazo[4,5-c]pyridin-5(4H)-yl)(5-(5-methoxypyridin-2-yl)-1,3,4-oxadiazol-2-yl)methanone]",< 500 nM
20,"Cc1ccc(-c2nnc(C(=O)N3CCc4[nH]cnc4[C@H]3c3cc4ccccc4cn3)o2)nc1 [Example 439, (R)-(4-(isoquinolin-3-yl)-6,7-dihydro-1H-imidazo[4,5-c]pyridin-5(4H)-yl)(5-(5-methylpyridin-2-yl)-1,3,4-oxadiazol-2-yl)methanone]",< 500 nM
21,"O=C(c1nnc(-c2cnn(C(F)F)c2)o1)N1CCc2[nH]cnc2[C@H]1c1cc2ccccc2cn1 [Example 440, (R)-(5-(1-(difluoromethyl)-1H-pyrazol-4-yl)-1,3,4-oxadiazol-2-yl)(4-(isoquinolin-3-yl)-6,7-dihydro-1H-imidazo[4,5-c]pyridin-5(4H)-yl)methanone]",< 500 nM
22,"Cn1ccc(-c2nnc(C(=O)N3CCc4[nH]cnc4[C@H]3c3cc4ccccc4cn3)o2)n1 [Example 441, (R)-(4-(isoquinolin-3-yl)-6,7-dihydro-1H-imidazo[4,5-c]pyridin-5(4H)-yl)(5-(1-methyl-1H-pyrazol-3-yl)-1,3,4-oxadiazol-2-yl)methanone]",< 500 nM
23,"O=C(c1nnc(-c2ccc(C(F)(F)F)cn2)o1)N1CCc2[nH]cnc2[C@H]1c1cc2ccccc2cn1 [Example 442, (R)-(4-(isoquinolin-3-yl)-6,7-dihydro-1H-imidazo[4,5-c]pyridin-5(4H)-yl)(5-(5-(trifluoromethyl)pyridin-2-yl)-1,3,4-oxadiazol-2-yl)methanone]",< 500 nM
24,"Cn1cnc(-c2nnc(C(=O)N3CCc4[nH]cnc4[C@H]3c3cc4ccccc4cn3)o2)c1 [Example 443, (R)-(4-(isoquinolin-3-yl)-6,7-dihydro-1H-imidazo[4,5-c]pyridin-5(4H)-yl)(5-(1-methyl-1H-imidazol-4-yl)-1,3,4-oxadiazol-2-yl)methanone]",< 500 nM
25,"Cn1cncc1-c1nnc(C(=O)N2CCc3[nH]cnc3[C@H]2c2cc3ccccc3cn2)o1 [Example 444, (R)-(4-(isoquinolin-3-yl)-6,7-dihydro-1H-imidazo[4,5-c]pyridin-5(4H)-yl)(5-(1-methyl-1H-imidazol-5-yl)-1,3,4-oxadiazol-2-yl)methanone]",500 to 1000 nM
26,"O=C(c1nnc(-c2cccnc2)o1)N1CCc2[nH]cnc2[C@H]1c1cc2ccccc2cn1 [Example 445, (R)-(4-(isoquinolin-3-yl)-6,7-dihydro-1H-imidazo[4,5-c]pyridin-5(4H)-yl)(5-(pyridin-3-yl)-1,3,4-oxadiazol-2-yl)methanone]",< 500 nM
27,"Cc1c(-c2nnc(C(=O)N3CCc4[nH]cnc4[C@H]3c3cc4ccccc4cn3)o2)cnn1C [Example 446, (R)-(5-(1,5-dimethyl-1H-pyrazol-4-yl)-1,3,4-oxadiazol-2-yl)(4-(isoquinolin-3-yl)-6,7-dihydro-1H-imidazo[4,5-c]pyridin-5(4H)-yl)methanone]",< 500 nM
28,"Cn1nccc1-c1nnc(C(=O)N2CCc3[nH]cnc3[C@H]2c2cc3ccccc3cn2)o1 [Example 447, (R)-(4-(isoquinolin-3-yl)-6,7-dihydro-1H-imidazo[4,5-c]pyridin-5(4H)-yl)(5-(1-methyl-1H-pyrazol-5-yl)-1,3,4-oxadiazol-2-yl)methanone]",< 500 nM
